Measurements from PMC8963254, “Effects of Lysine N-ζ-Methylation in Ultrashort Tetrabasic Lipopeptides (UTBLPs) on the Potentiation of Rifampicin, Novobiocin, and Niclosamide in Gram-Negative Bacteria” (Antibiotics, 2022).
Converted amounts (≈) assume the structure as drawn. Read-outs that look alike come from different tables or passages of the source. Non-standard residues stand in square brackets, D forms with d. Residues, ends and D or L forms follow the SMILES beside them. *: point of attachment. Lys(Me2) = CN(C)CCCC[C@H](N)C(=O)O; Octanoyl = CCCCCCCC(=O)*

Key:
P. aeruginosa PAO1 = assay type: cell-based, Pseudomonas aeruginosa; conditions: PAO1, 18 h
Method: (§1) The in vitro antibacterial activity of the UTBLPs was assessed against wild-type and clinically isolated bacterial strains. To obtain the MIC of the compounds, the microbroth dilution susceptibility assay was performed according to the Clinical and Laboratory Standards Institute (CLSI, Wayne, PA, USA) guidelines and as previously described. Briefly, the compounds at varying concentrations were incubated with bacterial inoculum (5 × 10^5 CFU/mL final concentration) at 37 °C for 18 h. Growth in the form of turbidity was confirmed using an EMax Plus microplate reader (Molecular Devices, San Jose, CA, USA) at 590 nm.

A. baumannii ATCC 17978 [1] = assay type: cell-based, Acinetobacter baumannii; conditions: ATCC 17978, 18 h
Method: as §1

E. coli ATCC 25922 = assay type: cell-based, Escherichia coli; conditions: ATCC 25922, 18 h
Method: as §1

E. faecium ATCC 27270 = assay type: cell-based, Enterococcus faecium; conditions: ATCC 27270, 18 h
Method: as §1

A. baumannii AB027 [2] = assay: microbe, parasite or virus in culture; assay type: cell-based, Acinetobacter baumannii; conditions: AB027, 18 h
Method: as §1

A. baumannii AB92247 = assay: microbe, parasite or virus in culture; assay type: cell-based, Acinetobacter baumannii; conditions: AB92247, 18 h
Method: as §1

E. cloacae 118564 [3] = assay: microbe, parasite or virus in culture; assay type: cell-based, Enterobacter cloacae; conditions: 118564, 18 h
Method: as §1

K. pneumoniae 113250 [4] = assay: microbe, parasite or virus in culture; assay type: cell-based, Klebsiella pneumoniae; conditions: 113250, 18 h
Method: as §1

MRSE 61589 [5] = assay type: cell-based, Staphylococcus epidermidis; conditions: 61589, 18 h
Method: as §1

MSSE 81388 [6] = assay type: cell-based, Staphylococcus epidermidis; conditions: 18 h
Method: as §1

A. baumannii 92247 = assay type: cell-based, Acinetobacter baumannii; conditions: for MICUTBLP: UTBLP alone
Method: (§2) The synergy of the UTBLPs with various antibiotics was assessed using checkerboard assay as previously described. Briefly, the combination of antibiotic and OMP at varying concentrations were incubated with bacterial inoculum (5 × 10^5 CFU/mL final concentration) at 37 °C for 18 h. Growth in the form of turbidity was confirmed using an EMax Plus microplate reader (Molecular Devices, Union City, CA, USA) at 590 nm. Fractional inhibitory concentration index (FICI) was used to evaluate the interaction between the antibiotic and the OMP. FICI is the sum of the FIC of the antibiotic and the FIC of the OMP. The FIC value is calculated by dividing the MIC of the agents in combination by the MIC of the agent alone. FICI ≤ 0.5 is synergistic, 0.5 < x ≤ 4 is additive, and >4 is antagonistic.

A. baumannii AB027 [7] = assay type: cell-based, Acinetobacter baumannii; conditions: for MICUTBLP: UTBLP alone
Method: as §2

A. baumannii ATCC 17978 [8] = assay type: cell-based, Acinetobacter baumannii; conditions: for MICUTBLP: UTBLP alone
Method: as §2

E. cloacae 118564 [9] = assay type: cell-based, Enterobacter cloacae; conditions: for MICUTBLP: UTBLP alone
Method: as §2

K. pneumoniae 113250 [10] = assay type: cell-based, Klebsiella pneumoniae; conditions: for MICUTBLP: UTBLP alone
Method: as §2

MRSA ATCC 33592 = assay type: cell-based, Staphylococcus aureus
Method: as §2

S. aureus ATCC 29213 = assay type: cell-based, Staphylococcus aureus
Method: as §2

MRSE 61589 [11] = assay type: cell-based, Staphylococcus epidermidis
Method: as §2

MSSE 81388 [12] = assay type: cell-based, Staphylococcus epidermidis
Method: as §2

E. faecalis ATCC 29212 = assay type: cell-based, Enterococcus faecalis
Method: as §2

[13] = UTBLP in combination with novobiocin
[14] = UTBLP in combination with rifampicin
[15] = novobiocin in combination with the UTBLP
[16] = rifampicin in combination with the UTBLP
[17] = UTBLP in combination with chloramphenicol
[18] = chloramphenicol in combination with the UTBLP
[19] = UTBLP alone, plate with chloramphenicol

MIC (P. aeruginosa PAO1): >128 µg/mL | MIC (A. baumannii ATCC 17978 [1]): 128 µg/mL (≈ 125 µM) | MIC (E. coli ATCC 25922): 64 µg/mL (≈ 62.6 µM) | MIC (E. faecium ATCC 27270): 128 µg/mL (≈ 125 µM) | MIC (A. baumannii AB027 [2]): 128 µg/mL (≈ 125 µM) | MIC (A. baumannii AB92247): 32 µg/mL (≈ 31.3 µM) | MIC (E. cloacae 118564 [3]): > 128 µg/mL | MIC (K. pneumoniae 113250 [4]): > 128 µg/mL | MIC (MRSE 61589 [5]): 32 µg/mL (≈ 31.3 µM) | MIC (MSSE 81388 [6]): 32 µg/mL (≈ 31.3 µM) | MICUTBLP (A. baumannii 92247; plate with novobiocin): 32 µg/mL | MICUTBLP (A. baumannii 92247; plate with rifampicin): 32 µg/mL | MICUTBLP [MICcombo] (A. baumannii 92247; [13]): 1 µg/mL | MICUTBLP [MICcombo] (A. baumannii 92247; [14]): 8 µg/mL | MICantibiotic [MICcombo] (A. baumannii 92247; [15]): 0.25 µg/mL | MICantibiotic [MICcombo] (A. baumannii 92247; [16]): 0.125 µg/mL | MICUTBLP (A. baumannii AB027 [7]; plate with novobiocin): 128 µg/mL | MICUTBLP (A. baumannii AB027 [7]; plate with rifampicin): 128 µg/mL | MICUTBLP [MICcombo] (A. baumannii AB027 [7]; [13]): 4 µg/mL | MICUTBLP [MICcombo] (A. baumannii AB027 [7]; [14]): 8 µg/mL | MICantibiotic [MICcombo] (A. baumannii AB027 [7]; [15]): 0.5 µg/mL | MICantibiotic [MICcombo] (A. baumannii AB027 [7]; [16]): 0.063 µg/mL | MICUTBLP (A. baumannii ATCC 17978 [8]; plate with chloramphenicol): 128 µg/mL | MICUTBLP (A. baumannii ATCC 17978 [8]; plate with niclosamide): 128 µg/mL | MICUTBLP (A. baumannii ATCC 17978 [8]; plate with novobiocin): 128 µg/mL | MICUTBLP (A. baumannii ATCC 17978 [8]; plate with rifampicin): 128 µg/mL | MICUTBLP [MICcombo] (A. baumannii ATCC 17978 [8]; [17]): 0.25 µg/mL | MICUTBLP [MICcombo] (A. baumannii ATCC 17978 [8]; UTBLP in combination with niclosamide): 4 µg/mL | MICUTBLP [MICcombo] (A. baumannii ATCC 17978 [8]; [13]): 4 µg/mL | MICUTBLP [MICcombo] (A. baumannii ATCC 17978 [8]; [14]): 4 µg/mL | MICantibiotic [MICcombo] (A. baumannii ATCC 17978 [8]; [18]): 64 µg/mL | MICantibiotic [MICcombo] (A. baumannii ATCC 17978 [8]; niclosamide in combination with the UTBLP): 4 µg/mL | MICantibiotic [MICcombo] (A. baumannii ATCC 17978 [8]; [15]): 0.5 µg/mL | MICantibiotic [MICcombo] (A. baumannii ATCC 17978 [8]; [16]): 0.125 µg/mL | MICUTBLP (E. cloacae 118564 [9]; plate with novobiocin): > 128 µg/mL | MICUTBLP (E. cloacae 118564 [9]; plate with rifampicin): > 128 µg/mL | MICUTBLP [MICcombo] (E. cloacae 118564 [9]; [13]): 16 µg/mL | MICUTBLP [MICcombo] (E. cloacae 118564 [9]; [14]): 16 µg/mL | MICantibiotic [MICcombo] (E. cloacae 118564 [9]; [15]): 4 µg/mL | MICantibiotic [MICcombo] (E. cloacae 118564 [9]; [16]): 1 µg/mL | MICUTBLP (K. pneumoniae 113250 [10]; plate with novobiocin): > 128 µg/mL | MICUTBLP (K. pneumoniae 113250 [10]; plate with rifampicin): > 128 µg/mL | MICUTBLP [MICcombo] (K. pneumoniae 113250 [10]; [13]): 8 µg/mL | MICUTBLP [MICcombo] (K. pneumoniae 113250 [10]; [14]): 16 µg/mL | MICantibiotic [MICcombo] (K. pneumoniae 113250 [10]; [15]): 8 µg/mL | MICantibiotic [MICcombo] (K. pneumoniae 113250 [10]; [16]): 2 µg/mL | MICUTBLP (MRSA ATCC 33592; [19]): > 128 µg/mL | MICUTBLP [MICcombo] (MRSA ATCC 33592; [17]): 0.25 µg/mL | MICchloramphenicol [MICcombo] (MRSA ATCC 33592; [18]): 64 µg/mL | MICUTBLP (S. aureus ATCC 29213; [19]): > 128 µg/mL | MICUTBLP [MICcombo] (S. aureus ATCC 29213; [17]): 0.25 µg/mL | MICchloramphenicol [MICcombo] (S. aureus ATCC 29213; [18]): 8 µg/mL | MICUTBLP (MRSE 61589 [11]; [19]): 32 µg/mL | MICUTBLP [MICcombo] (MRSE 61589 [11]; [17]): 0.25 µg/mL | MICchloramphenicol [MICcombo] (MRSE 61589 [11]; [18]): 8 µg/mL | MICUTBLP (MSSE 81388 [12]; [19]): 32 µg/mL | MICUTBLP [MICcombo] (MSSE 81388 [12]; [17]): 0.25 µg/mL | MICchloramphenicol [MICcombo] (MSSE 81388 [12]; [18]): 4 µg/mL | MICUTBLP (E. faecalis ATCC 29212; [19]): 64 µg/mL | MICUTBLP [MICcombo] (E. faecalis ATCC 29212; [17]): 8 µg/mL | MICchloramphenicol [MICcombo] (E. faecalis ATCC 29212; [18]): 4 µg/mL
Structure (SMILES): CCCCCCCC(=O)NCCCC[C@H](NC(=O)CCCCCCC)C(=O)N[C@@H](CCCCN(C)C)C(=O)N[C@@H](CCCCN(C)C)C(=O)N[C@@H](CCCCN(C)C)C(=O)N[C@@H](CCCCN(C)C)C(N)=O [UTBLP 7] (Octanoyl-K(Octanoyl)[Lys(Me2)][Lys(Me2)][Lys(Me2)][Lys(Me2)]-NH2)
Interpretation (A. baumannii 92247; UTBLP + novobiocin): Synergy (FICI ≤ 0.5 is synergistic) | Interpretation (A. baumannii 92247; UTBLP + rifampicin): Synergy (FICI ≤ 0.5 is synergistic) | Interpretation (A. baumannii AB027 [7]; UTBLP + novobiocin): Synergy (FICI ≤ 0.5 is synergistic) | Interpretation (A. baumannii AB027 [7]; UTBLP + rifampicin): Synergy (FICI ≤ 0.5 is synergistic) | Interpretation (A. baumannii ATCC 17978 [8]; UTBLP + chloramphenicol): Additive (0.5 < x ≤ 4 is additive) | Interpretation (A. baumannii ATCC 17978 [8]; UTBLP + niclosamide): Synergy (FICI ≤ 0.5 is synergistic) | Interpretation (A. baumannii ATCC 17978 [8]; UTBLP + novobiocin): Synergy (FICI ≤ 0.5 is synergistic) | Interpretation (A. baumannii ATCC 17978 [8]; UTBLP + rifampicin): Synergy (FICI ≤ 0.5 is synergistic) | Interpretation (E. cloacae 118564 [9]; UTBLP + novobiocin): Synergy (FICI ≤ 0.5 is synergistic) | Interpretation (E. cloacae 118564 [9]; UTBLP + rifampicin): Synergy (FICI ≤ 0.5 is synergistic) | Interpretation (K. pneumoniae 113250 [10]; UTBLP + novobiocin): Synergy (FICI ≤ 0.5 is synergistic) | Interpretation (K. pneumoniae 113250 [10]; UTBLP + rifampicin): Synergy (FICI ≤ 0.5 is synergistic) | Interpretation (MRSA ATCC 33592; UTBLP + chloramphenicol): Additive (0.5 < x ≤ 4 is additive) | Interpretation (MRSE 61589 [11]; UTBLP + chloramphenicol): Additive (0.5 < x ≤ 4 is additive) | Interpretation (MSSE 81388 [12]; UTBLP + chloramphenicol): Additive (0.5 < x ≤ 4 is additive) | Interpretation (E. faecalis ATCC 29212; UTBLP + chloramphenicol): Additive (0.5 < x ≤ 4 is additive)
